Reference: paper PMC7352571, “New Anti-Cancer Strategy to Suppress Colorectal Cancer Growth Through Inhibition of ATG4B and Lysosome Function” (Cancers, 2020)

What was measured:
[1] = system: proteolytic activity of lysosomes in HeLa cells; assay: DQ-BSA Red assay; format: cell-based; settings: 6 h, 163N 5 or 10 µM, Baf 0.5 µM, E64D 25 µM plus pepstatin A 50 µM
Description: Figure 5 163N causes lysosome dysfunction. […] . (C) HeLa cells were treated with or without 163N (10 µM) for 6 h, followed by immunostaining using cathepsin B and LAMP1 antibody. The colocalization of cathepsin B and LAMP1 was measured.
DQ-BSA Red assay: cells were incubated with 10 µg/mL DQ-BSA Red in EBSS medium at 37° for 1.5 h, and then new medium with or without the indicated compounds were added for another 4 or 6 h, and then fluorescence microscopy was used for detecting the intensity of red fluorescent.
Supplementary Materials: New Anti-Cancer Strategy
to Suppress Colorectal Cancer Growth Through
Inhibition of ATG4B and Lysosome Function
Figure S1. Compounds with a 6-methylpyrimidine-2,4-diamine structure could cause lysosome
inhibition. (A) The structure of the representative lysosome inhibitors. (B) GFP-LC3B HeLa cells were
treated with Baf (0.5 µM) or 5 µM of different lysosome inhibitors for 2 h, then LysoTracker Red (LTR,
25 ng/mL) was used and the relative LTR fluorescent intensity was measured. (C) HeLa cells were
firstly treated with 10 µg/mL DQ-BSA for 1.5 h, and then treated with Rap (1 µM), Baf (0.5 µM), E64D
(25 µM) plus pepstatin A (50 µM), or 5 µM of different lysosome inhibitors for 4 h.
Cancers 2020, 12, x; www.mdpi.com/journal/ cancers […]

[2] = system: lysosome acidity in HeLa cells; assay: LysoTracker Red (LTR) assay, HeLa; format: cell-based; settings: 6 h, 163N 5 or 10 µM, Rap 1 µM, E64D 25 µM plus pepstatin A 50 µM
Description: Figure 5 163N causes lysosome dysfunction. […] (C) HeLa cells were treated with or without 163N (10 µM) for 6 h, followed by immunostaining using cathepsin B and LAMP1 antibody. The colocalization of cathepsin B and LAMP1 was measured.
LTR assay: cells were incubated with LTR (25 nM) in HBSS medium at 37° for 30 min, and then fluorescence microscopy was used for detecting fluorescence intensity.

HL60 cells = assay: CCK-8 cell viability assay, HL60; format: cell-based; settings: Homo sapiens, HL-60; CCK-8 assay
Description: (§1) Cells were seeded and incubated overnight in 96-well plates at a density of 5 × 10^3 cells/well. […] A total of 10 µL CCK-8 were added to each well for additional 1 h and cell viability was measured by CCK-8 assay. Absorbance was measured at 450 nm. The IC50 values were calculated by GraphPad Prism 7 (GraphPad Software Inc., San Diego, CA, USA).

HeLa cells = assay: CCK-8 cell viability assay, HeLa; format: cell-based; settings: Homo sapiens, HeLa; CCK-8 assay, 48 h
Description: as §1

HCT116 cells = assay: CCK-8 cell viability assay, HCT116; format: cell-based, Human; settings: Homo sapiens, HCT-116; CCK-8 assay, 48 h
Description: as §1

ATG4B = biological target: T1, ATG4B (Homo sapiens, UniProt Q9Y4P1); assay: FRET-based assay for ATG4B activity
T1 sequence (Q9Y4P1 1-393): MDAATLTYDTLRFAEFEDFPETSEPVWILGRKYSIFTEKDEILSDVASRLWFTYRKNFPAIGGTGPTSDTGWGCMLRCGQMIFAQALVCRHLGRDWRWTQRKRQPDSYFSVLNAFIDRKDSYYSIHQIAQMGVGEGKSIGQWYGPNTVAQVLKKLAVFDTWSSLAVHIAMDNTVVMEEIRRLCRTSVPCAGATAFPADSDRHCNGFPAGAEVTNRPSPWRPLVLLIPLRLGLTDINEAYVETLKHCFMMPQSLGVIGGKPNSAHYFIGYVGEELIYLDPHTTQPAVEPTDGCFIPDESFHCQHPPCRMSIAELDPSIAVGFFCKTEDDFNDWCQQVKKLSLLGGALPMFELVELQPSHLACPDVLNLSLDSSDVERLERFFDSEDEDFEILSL
Description: A FRET-based assay for detecting ATG4B activity was carried out as described [45].

SMILES	dequenching of DQ-BSA (proteolytic activity of lysosome) [1]	LTR red fluorescence / acidic vesicles [2]	IC50 (HL60 cells) [µM]	IC50 (HeLa cells) [µM]	IC50 (HCT116 cells) [µM]	IC50 (ATG4B) [µM]
CO/C1=C\C(C)=C\[C@@H](C)[C@@H](O)[C@@H](C)C/C(C)=C/C=C/[C@H](OC)[C@@H]([C@@H](C)[C@@H](O)[C@H](C)[C@@]2(O)C[C@@H](O)[C@H](C)[C@@H](C(C)C)O2)OC1=O [Baf, Bafilomycin A1, reference compound]	nearly no dequenching of DQ-BSA					
CO[C@H]1C[C@@H]2CC[C@@H](C)[C@@](O)(O2)C(=O)C(=O)N2CCCC[C@H]2C(=O)O[C@H]([C@H](C)C[C@@H]2CC[C@@H](O)[C@H](OC)C2)CC(=O)[C@H](C)/C=C(\C)[C@@H](O)[C@@H](OC)C(=O)[C@H](C)C[C@H](C)/C=C/C=C/C=C/1C [Rap, rapamycin, reference compound]		stable				
COc1ccccc1/C=C/c1cc(O)cc(=O)[nH]1 [XGS00025]			> 100	> 100	> 100	29.2
Cc1ccc(/C=C/c2cc(O)cc(=O)[nH]2)o1 [XGS00031]			> 100	> 100	> 100	13
COc1cccc(/C=C/c2cc(N)cc(O)n2)c1 [XGS00043]			> 100	> 100	> 100	36.3
Nc1cc(O)nc(/C=C/c2ccc(Cl)cc2)c1 [XGS00046]			> 100	> 100	> 100	39.1
Nc1cc(O)nc(/C=C/c2ccco2)c1 [XGS00048]			> 100	> 100	> 100	13.8
CCN1C(=O)/C(=C\c2cn(CC(=O)O)c3ccccc23)C(=O)N(c2ccc(Cl)cc2)C1=S [XGS00119]			> 100	> 100	> 100	7.37
N/C(=N\[N+](=O)[O-])N/N=C/c1ccc(-c2ccc(-n3cnnn3)cc2)o1 [XOS00117]			> 100	> 100	> 100	6.65
CC(=O)Nc1ccc(/N=C/c2c(C)c(C#N)c3[nH]c4cc(C)ccc4n3c2=O)cc1 [XOS00125]			> 100	> 100	> 100	40.6
CCOC(=O)c1cnc2c(/N=N/c3ccc(OCC)cc3)c(N)nn2c1N [XOS00149]			> 100	> 100	> 100	44
COc1cccc(-c2cc3nc(-c4cccnc4)c(C#N)c(N)n3n2)c1 [XOS00154]			> 100	> 100	> 100	40.7
CCOC(=O)c1c(-c2ccccc2)oc2ccc(O)cc12 [XOS00163]			31.7	32	23	6.2
COc1cccc(-c2cc3c([N+](=O)[O-])cc([N+](=O)[O-])cc3[nH]2)c1OC [XOS00176]			> 100	> 100	> 100	23.8
O=C(Nc1ccc(-c2cc3ccccc3o2)cc1)c1ccco1 [XOS00201]			> 100	25.6	19.6	8.98
COc1c2c(cc3oc(=O)c4c5cc(O)c(O)cc5oc4c13)OCC2 [XOS00207]			60.7	87.1	17.6	2.31
